Measurements published in US20090247511A1, “SYNERGISTIC INSECTICIDE AND FUNGICIDE MIXTURES” (BAYER CROPSCIENCE AG, priority 2006, published 2009).

Tests used:
[1] = system: Myzus persicae; assay: Myzus persicae test (cabbage leaf dip, kill rate, Colby synergy); type: in vivo
[2] = system: Phaedon cochleariae larvae; assay: Phaedon cochleariae larvae test (cabbage leaf dip, kill rate, Colby synergy)

Cn1cc(C(=O)Nc2ccccc2C2CC2C2CC2)c(C(F)F)n1 (stereo not drawn) [Compound (I-4)]
0%: Kill in % after 1d ([1]; Table A1, 200 ppm) | Kill in % after 1d ([1]; Table A2, 200 ppm) | Kill in % after 4d ([2]; Table B1, 200 ppm) | Kill in % after 6d ([2]; Table B2, 200 ppm, after 6 d) | Kill in % after 4d ([2]; Table B3, 200 ppm) | Kill in % after 4d ([2]; Table B3, 400 ppm)
